In US20140194499A1, “Polyprenylated Benzoylphloroglucinols With Anticancer Activity” (Hong Kong Baptist University, priority 2013, published 2014):
Like-named read-outs stand apart in the source and are kept apart here.

Columns and labels:
Assay type in all cases: cell-based
[1] = tested on: MDA-MB-231 (human breast adenocarcinoma); test: MTT cytotoxicity assay, MDA-MB-231; conditions: MDA-MB-231 cells
Protocol: (§1) In the present invention, garciesculentones A and C (compounds 1 and 2) are evaluated for their cytotoxicity against two human hepatoma carcinoma (SMMC-7721 and HepG2) and two human breast adenocarcinoma cell lines (MCF-7 and MDA-MB-231) using MTT assay, palcitaxel is used as positive control. […] In practice, an effective concentration of the tested compound to kill a target cancer cell in vitro is normally about double of the corresponding IC50 value. In addition, wound healing assay is conducted to test whether two novel compounds could affect cell motility.
(§2) Cytotoxicity Assay. Cytotoxic activities of all isolates were evaluated by MTT assay using SMMC-7721 (human hepatocellular carcinoma), HepG2 (human hepatocellular carcinoma), MCF-7 (human breast adenocarcinoma), and MDA-MB-231 (human breast adenocarcinoma). Paclitaxel was used as positive control. The detailed methodology for cytotoxicity assay has already been described in a previous report in Xia, Z.-X.; Zhang, D.-D.; Liang, S.; Lao, Y.-Z.; Zhang, H.; Tan, H.-S.; Chen, S.-L.; Wang, X.-H.; Xu, H.-X., Bioassay-Guided Isolation of Prenylated Xanthones and Polycyclic Acylphloroglucinols from the Leaves of Garcinia nujiangensis. Journal of Natural Products 2012.

[2] = tested on: SMMC-7721 (human hepatocellular carcinoma); test: MTT cytotoxicity assay, SMMC-7721; conditions: SMMC-7721 cells
Protocol: as §1, §2

[3] = tested on: human esophageal carcinoma (ECA109) cells; test: Wound healing assay (cell migration); conditions: 10 and 20 μg/mL, 36 hours
Protocol: as §1
Wound healing assay. A wound healing assay was performed by using a modified procedure described previously in Jones, J. I.; Gockerman, A.; Busby, W. H., Jr.; Wright, G.; Clemmons, D. R., Insulin-like growth factor binding protein 1 stimulates cell migration and binds to the alpha 5 beta 1 integrin by means of its Arg-Gly-Asp sequence. Proc Nall Acad Sci USA 1993, 90 (22), 10553-7. Briefly, cells were plated in 24 wells plate at 70% confluence in conditioned medium. […] Cell migration into the wound surface was monitored by Olympus 1X71 microscopy and digitally photographed.

[4] = tested on: MCF-7 (human breast adenocarcinoma); test: MTT cytotoxicity assay, MCF-7
Protocol: as §1, §2

[5] = tested on: HepG2 (human hepatocellular carcinoma); test: MTT cytotoxicity assay, HepG2; conditions: HepG2 cells, read-out: Cytotoxicity IC50, HepG 2
Protocol: as §1, §2

Compound | IC50 [1] [µM] | IC50 [2] [µM] | Cell migration into the wound area (antimigration effect) [3] | IC50 ([4]; MCF-7 cells) [µM] | IC50 [5] [µM] | IC50 ([1]; Homo sapiens) [µM] | IC50 ([2]; Homo sapiens) [µM] | IC50 ([4]; Homo sapiens, MCF7, MCF-7 cells) [µM] | IC50 ([5]; Homo sapiens) [µM]
CC(C)=CC[C@H]1C[C@@]23C[C@H](CC=C(C)C)C(C)(C)[C@@](CC=C(C)C)(C(=O)C(OC(=O)c4ccc(O)c(O)c4)=C2OC1(C)C)C3=O (relative stereo) [Compound 1, Garciesculentone A] | 16.4 | 10.8 | do not migrate into and completely close the wound | 20.3 | 43.2 |  |  |  | 
Garciesculentone C [Compound 2] | 21.5 | 17.5 | do not migrate into and completely close the wound | 11.1 | 21.9 |  |  |  | 
CC(=O)O[C@H]1C(=O)[C@@]2(C)[C@H]([C@H](OC(=O)c3ccccc3)[C@]3(O)C[C@H](OC(=O)[C@H](O)[C@@H](NC(=O)c4ccccc4)c4ccccc4)C(C)=C1C3(C)C)[C@]1(OC(C)=O)CO[C@@H]1C[C@@H]2O [Palcitaxel, Paclitaxel, reference compound] |  |  |  |  |  | 0.0082 | 0.0091 | 0.0015 | 0.0046
